Experimental data taken from patent publication US11590116B2 (THERAVANCE BIOPHARMA R&D IP, LLC, priority 2019, dated 2023).

Experiments:
[1] = test system: TGF-β-stimulated SMAD3 phosphorylation in BEAS-2B cells; experiment: Cellular ALK5 potency assay, inhibition of TGF-β stimulated pSMAD3 formation in BEAS-2B cells; type: cell-based; conditions: Homo sapiens; inhibition of TGF-β stimulated pSMAD3 formation, BEAS-2B cells; read-out: BEAS2B pIC50 (converted)
Method in brief: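 Potency is reported as pIC50, derived from concentration-dependent reduction of pSMAD3 AlphaLISA signal against TGF-β-stimulated cells without compound. BEAS-2B cells received compound for 1 h before a 30-min stimulation with 10 ng/mL TGF-β.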

[2] = target: T1, recombinant human ALK5 (TGF-βR1) protein (Homo sapiens, UniProt P36897); experiment: Biochemical ALK5 (TGF-βR1) assay to measure pKi (LANCE Ultra ULight kinase assay); conditions: apparent pKi from pIC50 by Cheng-Prusoff, read-out: ALK5 pKi (converted)
T1 construct: purchased Life Technologies PR9075A
T1 sequence (P36897 34-503): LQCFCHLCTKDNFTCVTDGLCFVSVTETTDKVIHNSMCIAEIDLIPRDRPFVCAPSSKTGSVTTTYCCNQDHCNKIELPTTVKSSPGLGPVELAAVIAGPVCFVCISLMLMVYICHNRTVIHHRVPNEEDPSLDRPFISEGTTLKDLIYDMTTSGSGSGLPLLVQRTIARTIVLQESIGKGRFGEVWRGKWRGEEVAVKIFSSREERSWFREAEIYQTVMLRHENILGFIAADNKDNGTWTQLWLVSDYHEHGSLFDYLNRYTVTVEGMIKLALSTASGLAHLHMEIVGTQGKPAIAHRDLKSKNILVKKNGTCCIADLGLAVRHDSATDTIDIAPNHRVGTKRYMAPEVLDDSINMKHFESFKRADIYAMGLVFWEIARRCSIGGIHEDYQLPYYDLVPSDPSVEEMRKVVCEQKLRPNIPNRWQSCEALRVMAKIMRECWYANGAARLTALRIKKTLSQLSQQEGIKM
Method in brief: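 After a 60 min room-temperature preincubation of ALK5 with compound, phosphorylation proceeds 60 min at 37 °C on ATP addition (125 μM as 5× stock). Detection: Eu-labelled phospho-Thr1342 Topo IIα antibody in EDTA buffer, pH 7.0; emission 665 nm.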

| Structure (SMILES) | IC50 [1] [nM] | Ki [2] [nM] |
| --- | --- | --- |
| Cc1cccc(-c2[nH]cnc2-c2ccc3ncc(-c4ncc(C(=O)O)cn4)cc3c2)n1 [Compound 1140, 2-[6-[5-(6-methyl-2-pyridyl)-1H-imidazol-4-yl]-3-quinolyl]pyrimidine-5-carboxylic acid] | 200 to 1260 | 0.0398 to 0.316 |
| Cc1cccc(-c2n[nH]cc2-c2ccc3ncc(-c4nc5c([nH]4)CCNC5)cc3n2)n1 [Compound 134, 2-[3-(6-methyl-2-pyridyl)-1H-pyrazol-4-yl]-7-(4,5,6,7-tetrahydro-1H-imidazo[4,5-c]pyridin-2-yl)-1,5-naphthyridine] | 1580 to 10000 | 0.0398 to 0.316 |
| Cc1cccc(-c2[nH]cnc2-c2ccc3ncc(NCCN4CCNC(C(=O)O)C4)cc3c2)n1 (centres unmarked) [Compound 712, 4-[2-[[6-[5-(6-methyl-2-pyridyl)-1H-imidazol-4-yl]-3-quinolyl]amino]ethyl]piperazine-2-carboxylic acid] | 200 to 1260 | 0.0398 to 0.316 |
| CNCCn1ccc(-c2cnc3ccc(-c4nc[nH]c4-c4cccc(C)n4)nc3c2)n1 [Compound 152, N-methyl-2-[3-[6-[5-(6-methyl-2-pyridyl)-1H-imidazol-4-yl]-1,5-naphthyridin-3-yl]pyrazol-1-yl]ethanamine] | 25.1 to 158 | < 0.0316 |
| Cc1cccc(-c2n[nH]cc2-c2ccc3ncc(C#N)cc3n2)n1 [Compound 236, 6-[3-(6-methyl-2-pyridyl)-1H-pyrazol-4-yl]-1,5-naphthyridine-3-carbonitrile] | 25.1 to 158 | 0.398 to 3.16 |
| Cc1cccc(-c2[nH]cnc2-c2ccc3ncc(C(=O)O[C@H]4CC[C@@H](N)CC4)cc3c2)n1 [Compound 1066, (4-aminocyclohexyl) 6-[5-(6-methyl-2-pyridyl)-1H-imidazol-4-yl]quinoline-3-carboxylate] | 200 to 1260 | 0.398 to 3.16 |
| Cc1cccc(-c2[nH]cnc2-c2ccc3ncc(NC4CC5(CNC5)C4)cc3c2)n1 [Compound 200, N-(2-azaspiro[3.3]heptan-6-yl)-6-[5-(6-methyl-2-pyridyl)-1H-imidazol-4-yl]quinolin-3-amine] | 200 to 1260 | 0.0398 to 0.316 |
| Cc1cccc(-c2[nH]cnc2-c2ccc3ncc(C4=CC[C@H](NC(=O)[C@@H]5CCC(=O)N5)CC4)cc3c2)n1 [Compound 764, (2S)-N-[(1R)-4-[6-[5-(6-methyl-2-pyridyl)-1H-imidazol-4-yl]-3-quinolyl]cyclohex-3-en-1-yl]-5-oxo-pyrrolidine-2-carboxamide] | 200 to 1260 | 0.0398 to 0.316 |
| Cc1cccc(-c2n[nH]cc2-c2ccc3nccc(N4CCC(N5CCOCC5)CC4)c3n2)n1 [Compound 847, 4-[1-[6-[3-(6-methyl-2-pyridyl)-1H-pyrazol-4-yl]-1,5-naphthyridin-4-yl]-4-piperidyl]morpholine] | 25.1 to 158 | 0.0398 to 0.316 |
| Cc1cccc(-c2[nH]cnc2-c2ccc3ncc(C(=O)OC[C@H]4CCC[C@H](N)C4)cc3c2)n1 (racemic) [Compound 769, [rac-(1S,3S)-3-aminocyclohexyl]methyl 6-[5-(6-methyl-2-pyridyl)-1H-imidazol-4-yl]quinoline-3-carboxylate] | 25.1 to 158 | 0.0398 to 0.316 |
| Cc1cccc(-c2[nH]cnc2-c2ccc3ncc(-c4ccc5c(c4)CNCC5)cc3c2)n1 [Compound 609, 6-[5-(6-methyl-2-pyridyl)-1H-imidazol-4-yl]-3-(1,2,3,4-tetrahydroisoquinolin-7-yl)quinoline] | < 20 | 0.0398 to 0.316 |
| COC(=O)c1coc(-c2ccnc3ccc(-c4c[nH]nc4-c4cccc(C)n4)nc23)n1 [Compound 817, methyl 2-[6-[3-(6-methyl-2-pyridyl)-1H-pyrazol-4-yl]-1,5-naphthyridin-4-yl]oxazole-4-carboxylate] | 200 to 1260 | 0.398 to 3.16 |
| Cc1cccc(-c2[nH]cnc2-c2ccc3ncc(C(=O)O[C@H]4CC[C@H](N)CC4)cc3c2)n1 [Compound 763, (4-aminocyclohexyl) 6-[5-(6-methyl-2-pyridyl)-1H-imidazol-4-yl]quinoline-3-carboxylate] | 25.1 to 158 | 0.0398 to 0.316 |
| Cc1cccc(-c2[nH]cnc2-c2ccc3ncc(-c4ccc(CN5C[C@@H](C)N[C@@H](C)C5)nc4)cc3c2)n1 [Compound 1045, 3-(6-(((3S,5R)-3,5-dimethylpiperazin-1-yl)methyl)pyridin-3-yl)-6-(5-(6-methylpyridin-2-yl)-1H-imidazol-4-yl)quinoline] | 25.1 to 158 | 0.0398 to 0.316 |
| Cc1cccc(-c2[nH]cnc2-c2ccc3ncc(-c4csc(C(=O)OC5CNC5)n4)cc3c2)n1 [Compound 1046, azetidin-3-yl 4-[6-[5-(6-methyl-2-pyridyl)-1H-imidazol-4-yl]-3-quinolyl]thiazole-2-carboxylate] | 25.1 to 158 | 0.0398 to 0.316 |
| Cc1cccc(-c2n[nH]cc2-c2ccc3ncc(CCCN4CCOCC4)cc3n2)n1 [Compound 261, 4-[3-[6-[3-(6-methyl-2-pyridyl)-1H-pyrazol-4-yl]-1,5-naphthyridin-3-yl]propyl]morpholine] | 25.1 to 158 | 0.0398 to 0.316 |
| Cc1cccc(-c2[nH]cnc2-c2ccc3ncc(C(=O)OC4CCCCNC4)cc3c2)n1 (centres unmarked) [Compound 773, azepan-3-yl 6-[5-(6-methyl-2-pyridyl)-1H-imidazol-4-yl]quinoline-3-carboxylate] | 25.1 to 158 | 0.0398 to 0.316 |
| Cc1nc(-c2n[nH]cc2-c2ccc3ncc(-c4cc5c(nn4)CCNC5)cc3n2)ccc1F [Compound 289, 3-[6-[3-(5-fluoro-6-methyl-2-pyridyl)-1H-pyrazol-4-yl]-1,5-naphthyridin-3-yl]-5,6,7,8-tetrahydropyrido[4,3-c]pyridazine] | 200 to 1260 | 0.398 to 3.16 |
| Cc1cccc(-c2[nH]cnc2-c2ccc3ncc(N4CC(N(C)C)C4)cc3c2)n1 [Compound 648, N,N-dimethyl-1-[6-[5-(6-methyl-2-pyridyl)-1H-imidazol-4-yl]-3-quinolyl]azetidin-3-amine] | 25.1 to 158 | 0.0398 to 0.316 |
| CNCCn1cc(-c2cnc3ccc(-c4c[nH]nc4-c4ccc(F)c(C)n4)nc3c2)cn1 [Compound 477, 2-[4-[6-[3-(5-fluoro-6-methyl-2-pyridyl)-1H-pyrazol-4-yl]-1,5-naphthyridin-3-yl]pyrazol-1-yl]-N-methyl-ethanamine] | < 20 | < 0.0316 |
| CN[C@H]1CC[C@H](OC(=O)c2ccnc3ccc(-c4cn[nH]c4-c4cccc(C)n4)cc23)CC1 [Compound 1179, [4-(methylamino)cyclohexyl] 6-[5-(6-methyl-2-pyridyl)-1H-pyrazol-4-yl]quinoline-4-carboxylate] | 25.1 to 158 | 0.398 to 3.16 |
| Cc1cccc(-c2[nH]ncc2-c2ccc3ncc(C(=O)O[C@@H]4CCNC4)cc3n2)n1 [Compound 195, [(3R)-pyrrolidin-3-yl] 6-[5-(6-methyl-2-pyridyl)-1H-pyrazol-4-yl]-1,5-naphthyridine-3-carboxylate] | 25.1 to 158 | 0.398 to 3.16 |
| Cc1cccc(-c2[nH]cnc2-c2ccc3ncc(-c4ccc(C(=O)O[C@H]5CCNC5)cc4)cc3c2)n1 [Compound 718, [(3S)-pyrrolidin-3-yl]4-[6-[5-(6-methyl-2-pyridyl)-1H-imidazol-4-yl]-3-quinolyl]benzoate] | 25.1 to 158 | 0.0398 to 0.316 |
| Cc1cccc(-c2[nH]ncc2-c2ccc3ncc(C(=O)OC4CCC(N)CC4)cc3c2)n1 (centres unmarked) [Compound 1216, (4-aminocyclohexyl) 6-[5-(6-methyl-2-pyridyl)-1H-pyrazol-4-yl]quinoline-3-carboxylate] | < 20 | 0.0398 to 0.316 |
| Cc1cccc(-c2[nH]cnc2-c2ccc3ncc(C(=O)O[C@H]4CCCC[C@@H]4N)cc3c2)n1 [Compound 879, (1S,2S)-2-aminocyclohexyl 6-(5-(6-methylpyridin-2-yl)-1H-imidazol-4-yl)quinoline-3-carboxylate] | 25.1 to 158 | 3.98 to 31.6 |
| Cc1cccc(-c2[nH]cnc2-c2ccc3ncc(C4=CCC5(CCNC(=O)C5)CC4)cc3c2)n1 (centres unmarked) [Compound 1206, 9-[6-[5-(6-methyl-2-pyridyl)-1H-imidazol-4-yl]-3-quinolyl]-3-azaspiro[5.5]undec-9-en-4-one] | 25.1 to 158 | < 0.0316 |
| Cc1cccc(-c2n[nH]c(NCCN3CCOCC3)c2-c2ccc3ncc(-c4ccncc4)cc3n2)n1 [Compound 468, 3-(6-methylpyridin-2-yl)-N-(2-morpholinoethyl)-4-(7-(pyridin-4-yl)-1,5-naphthyridin-2-yl)-1H-pyrazol-5-amine] | 200 to 1260 | 0.0398 to 0.316 |
| Cc1cccc(-c2[nH]nnc2-c2ccc3ncc(N4CCCNCC4)cc3n2)n1 [Compound 557, 7-(1,4-diazepan-1-yl)-2-[5-(6-methyl-2-pyridyl)-1H-triazol-4-yl]-1,5-naphthyridine] | 1580 to 10000 | 3.98 to 31.6 |
